According to patent US12319709B2, “Diaryl trehalose compounds and uses thereof” (THE UNIVERSITY OF MONTANA, priority 2018, dated 2025):

Legend:
[1] = system: peripheral blood mononuclear cells (PBMCs); experiment: Cytokine analysis of supernatants of stimulated, freshly prepared PBMCs; format: cell-based, human; conditions: compounds solubilized in DMSO
Protocol: (§1) Tumor necrosis factor alpha (TNFα) and IL-6 production in peripheral blood mononuclear cells (PBMCs) was measured after exposure to various concentrations of the DAT compounds synthesized as shown above. Initial studies focused on two different methods of delivery of the DAT compounds to PBMC cultures. In the first delivery method, the indicated derivative compound was dissolved in isopropanol, serially diluted, and then dried to the bottom of a tissue culture plate. In the second delivery method, the indicated derivative compound was dissolved in DMSO and serially diluted into tissue culture media. In each method, PBMCs were added to the compounds and incubated at 37° C. TNFα (FIG. 1A) and IL-6 (FIG. 1B) were measured after 18-24 hours after treatment by ELISA assay.
Supernatants from the freshly prepared PBMCs stimulated with DAT compounds solubilized in DMSO (Example 5A) were analyzed for the cytokines that help drive Th1 cell or Th17 cell adaptive immune responses; IFNγ, IL-12 p70, IL-6, IL-1β, and IL-23. Minimal amounts of IL-12p70 were detected and IFNγ was undetectable. Therefore, both are not reported.

[2] = system: peripheral blood mononuclear cells (PBMCs); experiment: IL-6 induction in fresh human PBMCs; format: cell-based; conditions: for IL-6 production / activity in fresh PBMCs from multiple donors (in words): compounds in DMSO serially diluted in media, supernatants 18 h after treatment; for Maximum cytokine response h-IL-6 / Minimal Effective Concentration h-IL-6: human IL-6, NR = no response
Protocol: as §1
The isolated PBMCs were exposed to increasing concentrations of the indicated compounds resuspended in DMSO and serially diluted in media. IL-6 levels were determined from supernatants eighteen hours after treatment (FIG. 3).

RAW264.7 cells = experiment: Cytokine (TNFα) response of mouse macrophage cell line; Table 2 'Murine'; format: cell-based; parameters: Maximum cytokine response Murine: unit not given here; conditions: NR = no response
Protocol: Compounds were also tested in a mouse macrophage cell line (FIG. 4B). RAW264.7 cells were subjected to increasing concentrations of the compounds and assessed for production of the cytokine TNFα.

Balb/c mice = experiment: i.m. immunization of Balb/c mice with M72 antigen and liposomal adjuvant; splenocyte restimulation, intracellular cytokine staining; format: in vivo, mouse; conditions: liposomal formulation, M72 restimulated splenocytes; TDB at highest dose

With `O=C(/C=C/c1ccc(O)c(O)c1)OC[C@H]1O[C@H](O[C@H]2O[C@H](COC(=O)/C=C/c3ccc(O)c(O)c3)[C@@H](O)[C@H](O)[C@H]2O)[C@H](O)[C@@H](O)[C@@H]1O` [UM1021] the “TNFα response in PBMCs (in words)” value [1] was “higher responding”, the “IL-6 production / activity in fresh PBMCs from multiple donors (in words)” value (from here on “IL-6 production / activity”) [2] was “induced some cytokine production” and the “Maximum cytokine response h-IL-6” value [2] was 2 OD. For the same molecule, the “Minimal Effective Concentration h-IL-6” value [2] was 333 µM, the “Maximum cytokine response Murine” value (RAW264.7 cells) was 3 and the “Minimal Effective Concentration Murine” value (RAW264.7 cells) was 333 µM.

For `COc1cc(OC)cc(C(=O)OC[C@H]2O[C@H](O[C@H]3O[C@H](COC(=O)c4cc(OC)cc(OC)c4)[C@@H](O)[C@H](O)[C@H]3O)[C@H](O)[C@@H](O)[C@@H]2O)c1` [UM1015, 6,6′-bis-(3,5-dimethoxybenzoate)-α,α-trehalose], the “TNFα response in PBMCs (in words)” value [1] was “higher responding”, the “IL-6 production / activity” value [2] was “potent, robust activity in only 3 of 5 donors” and the “Maximum cytokine response h-IL-6” value [2] was 3.6 OD. For the same molecule, the “Minimal Effective Concentration h-IL-6” value [2] was 111 µM, the “Maximum cytokine response Murine” value (RAW264.7 cells; listed as 1015) was 3.5 and the “Minimal Effective Concentration Murine” value (RAW264.7 cells; listed as 1015) was 12.3 µM.

In the case of `CCCCCCCCCCCCCCCCCCCCCC(=O)OC[C@H]1O[C@H](O[C@H]2O[C@H](COC(=O)CCCCCCCCCCCCCCCCCCCCC)[C@@H](O)[C@H](O)[C@H]2O)[C@H](O)[C@@H](O)[C@@H]1O` [TDB, trehalose dibehenate, reference compound], the “antigen-specific CD4+ and CD8+ IL-17A producing cells (Th17 response)” value (Balb/c mice) is reported as “induced some IL-17A”.

For `COc1cc(/C=C/C(=O)OC[C@H]2O[C@H](O[C@H]3O[C@H](COC(=O)/C=C/c4cc(OC)c(OC)c(OC)c4)[C@@H](O)[C@H](O)[C@H]3O)[C@H](O)[C@@H](O)[C@@H]2O)cc(OC)c1OC` [UM1020], the “TNFα response in PBMCs (in words)” value [1] was “higher responding”, the “Maximum cytokine response h-IL-6” value [2] was 1.5 OD and the “Minimal Effective Concentration h-IL-6” value [2] was 333 µM. The “Maximum cytokine response Murine” value (RAW264.7 cells) was 3.2 and the “Minimal Effective Concentration Murine” value (RAW264.7 cells) was 33.3 µM.

In the case of `COc1cc(C)c(C(=O)OC[C@H]2O[C@H](O[C@H]3O[C@H](COC(=O)c4c(C)cc(OC)cc4OC)[C@@H](O)[C@H](O)[C@H]3O)[C@H](O)[C@@H](O)[C@@H]2O)c(OC)c1` [UM1022], the “TNFα response in PBMCs (in words)” value [1] is reported as “higher responding”, the “IL-6 production / activity” value [2] is reported as “reproducibly induced potent, robust IL-6 production” and the “Maximum cytokine response h-IL-6” value [2] is reported as 3 OD. For the same molecule, the “Minimal Effective Concentration h-IL-6” value [2] was 333 µM, the “Maximum cytokine response Murine” value (RAW264.7 cells) was 3.3 and the “Minimal Effective Concentration Murine” value (RAW264.7 cells) was 37 µM.

With `CC(C)(C)CC(C)(C)c1ccc(O)c(C(=O)OC[C@H]2O[C@H](O[C@H]3O[C@H](COC(=O)c4cc(C(C)(C)CC(C)(C)C)ccc4O)[C@@H](O)[C@H](O)[C@H]3O)[C@H](O)[C@@H](O)[C@@H]2O)c1` [UM1117] the “Maximum cytokine response h-IL-6” value [2] was 9 OD, the “Minimal Effective Concentration h-IL-6” value [2] was 33.3 µM and the “Maximum cytokine response Murine” value (RAW264.7 cells) was 11. The “Minimal Effective Concentration Murine” value (RAW264.7 cells) was 3 µM.

In the case of `Cc1cccc(Nc2ccccc2C(=O)OC[C@H]2O[C@H](O[C@H]3O[C@H](COC(=O)c4ccccc4Nc4cccc(C)c4C)[C@@H](O)[C@H](O)[C@H]3O)[C@H](O)[C@@H](O)[C@@H]2O)c1C` [UM1074], the “Maximum cytokine response h-IL-6” value [2] is reported as 3.5 OD, the “Minimal Effective Concentration h-IL-6” value [2] is reported as 33.3 µM and the “Maximum cytokine response Murine” value (RAW264.7 cells) is reported as 2. The “Minimal Effective Concentration Murine” value (RAW264.7 cells) was 1.2 µM.

With `CCCCOc1cc(C(=O)OC[C@H]2O[C@H](O[C@H]3O[C@H](COC(=O)c4cc(OCCCC)c(OCCCC)c(OCCCC)c4)[C@@H](O)[C@H](O)[C@H]3O)[C@H](O)[C@@H](O)[C@@H]2O)cc(OCCCC)c1OCCCC` [UM1096] the “Maximum cytokine response h-IL-6” value [2] was 3.2 OD, the “Minimal Effective Concentration h-IL-6” value [2] was 2.5 µM and the “Maximum cytokine response Murine” value (RAW264.7 cells) was 0.005. For the same molecule, the “Minimal Effective Concentration Murine” value (RAW264.7 cells) was 3 µM.

In the case of `CC(C)c1cc(C(=O)OC[C@H]2O[C@H](O[C@H]3O[C@H](COC(=O)c4cc(C(C)C)cc(C(C)C)c4O)[C@@H](O)[C@H](O)[C@H]3O)[C@H](O)[C@@H](O)[C@@H]2O)c(O)c(C(C)C)c1` [UM1023, 6,6′-bis-(3,5-di-iso-propylsalisate)-α,α-trehalose], the “TNFα response in PBMCs (in words)” value [1] is reported as “higher responding”, the “IL-6 production / activity” value [2] is reported as “lower activity” and the “Maximum cytokine response Murine” value (RAW264.7 cells) is reported as 2.5. For the same molecule, the “Minimal Effective Concentration Murine” value (RAW264.7 cells) was 0.45 µM.

In the case of `CCCCCOc1cc(OCCCCC)cc(C(=O)OC[C@H]2O[C@H](O[C@H]3O[C@H](COC(=O)c4cc(OCCCCC)cc(OCCCCC)c4)[C@@H](O)[C@H](O)[C@H]3O)[C@H](O)[C@@H](O)[C@@H]2O)c1` [UM1052], the “Maximum cytokine response h-IL-6” value [2] is reported as 3.3 OD, the “Minimal Effective Concentration h-IL-6” value [2] is reported as 0.08 µM and the “Maximum cytokine response Murine” value (RAW264.7 cells) is reported as 1.3. For the same molecule, the “Minimal Effective Concentration Murine” value (RAW264.7 cells) was 0.13 µM.

For `COc1ccc(/C=C/C(=O)OC[C@H]2O[C@H](O[C@H]3O[C@H](COC(=O)/C=C/c4ccc(OC)c(OC)c4)[C@@H](O)[C@H](O)[C@H]3O)[C@H](O)[C@@H](O)[C@@H]2O)cc1OC` [UM1019], the “TNFα response in PBMCs (in words)” value [1] was “higher responding”, the “Maximum cytokine response h-IL-6” value [2] was 2 OD and the “Minimal Effective Concentration h-IL-6” value [2] was 333 µM. For the same molecule, the “Maximum cytokine response Murine” value (RAW264.7 cells) was 2.3 and the “Minimal Effective Concentration Murine” value (RAW264.7 cells) was 111 µM.

For `CC(C)(C)c1cc(CCC(=O)OC[C@H]2O[C@H](O[C@H]3O[C@H](COC(=O)CCc4cc(C(C)(C)C)c(O)c(C(C)(C)C)c4)[C@@H](O)[C@H](O)[C@H]3O)[C@H](O)[C@@H](O)[C@@H]2O)cc(C(C)(C)C)c1O` [UM1086], the “Maximum cytokine response h-IL-6” value [2] was 3 OD, the “Minimal Effective Concentration h-IL-6” value [2] was 33.3 µM and the “Maximum cytokine response Murine” value (RAW264.7 cells) was 3. For the same molecule, the “Minimal Effective Concentration Murine” value (RAW264.7 cells) was 0.13 µM.

With `CC(C)(C)c1cc(C(=O)NC[C@H]2O[C@H](O[C@H]3O[C@H](CNC(=O)c4cc(C(C)(C)C)cc(C(C)(C)C)c4O)[C@@H](O)[C@H](O)[C@H]3O)[C@H](O)[C@@H](O)[C@@H]2O)c(O)c(C(C)(C)C)c1` [UM1088] the “Maximum cytokine response h-IL-6” value [2] was 3.5 OD, the “Minimal Effective Concentration h-IL-6” value [2] was 2.5 µM and the “Maximum cytokine response Murine” value (RAW264.7 cells) was 1.3. The “Minimal Effective Concentration Murine” value (RAW264.7 cells) was 0.4 µM.

For `CCCCCCCCCCOc1cc(OCCCCCCCCCC)cc(C(=O)OC[C@H]2O[C@H](O[C@H]3O[C@H](COC(=O)c4cc(OCCCCCCCCCC)cc(OCCCCCCCCCC)c4)[C@@H](O)[C@H](O)[C@H]3O)[C@H](O)[C@@H](O)[C@@H]2O)c1` [UM1094], the “Maximum cytokine response h-IL-6” value [2] was 3.4 OD, the “Minimal Effective Concentration h-IL-6” value [2] was 1.2 µM and the “Maximum cytokine response Murine” value (RAW264.7 cells) was “<.001”. The “Minimal Effective Concentration Murine” value (RAW264.7 cells) was 3.4 µM.

`O=C(OC[C@H]1O[C@H](O[C@H]2O[C@H](COC(=O)c3c(C(F)(F)F)cccc3C(F)(F)F)[C@@H](O)[C@H](O)[C@H]2O)[C@H](O)[C@@H](O)[C@@H]1O)c1c(C(F)(F)F)cccc1C(F)(F)F` [UM1065] was tested, and the “Maximum cytokine response h-IL-6” value [2] was 3 OD, the “Minimal Effective Concentration h-IL-6” value [2] was 3.7 µM and the “Maximum cytokine response Murine” value (RAW264.7 cells) was 2.5. For the same molecule, the “Minimal Effective Concentration Murine” value (RAW264.7 cells) was 100 µM.

`CCCCCCCCOc1cc(C(=O)OC[C@H]2O[C@H](O[C@H]3O[C@H](COC(=O)c4cc(OCCCCCCCC)c(OCCCCCCCC)c(OCCCCCCCC)c4)[C@@H](O)[C@H](O)[C@H]3O)[C@H](O)[C@@H](O)[C@@H]2O)cc(OCCCCCCCC)c1OCCCCCCCC` [UM1098] was tested, and the “Maximum cytokine response h-IL-6” value [2] was 3.4 OD, the “Minimal Effective Concentration h-IL-6” value [2] was 11 µM and the “Maximum cytokine response Murine” value (RAW264.7 cells) was 0.04. For the same molecule, the “Minimal Effective Concentration Murine” value (RAW264.7 cells) was 3.4 µM.

With `O=C(OC[C@H]1O[C@H](O[C@H]2O[C@H](COC(=O)c3ccccc3C(F)(F)F)[C@@H](O)[C@H](O)[C@H]2O)[C@H](O)[C@@H](O)[C@@H]1O)c1ccccc1C(F)(F)F` [UM1042] the “Maximum cytokine response h-IL-6” value [2] was 2 OD, the “Minimal Effective Concentration h-IL-6” value [2] was 50 µM and the “Maximum cytokine response Murine” value (RAW264.7 cells) was 0.9. For the same molecule, the “Minimal Effective Concentration Murine” value (RAW264.7 cells) was 11 µM.

With `COc1cc(Br)c(CC(=O)OC[C@H]2O[C@H](O[C@H]3O[C@H](COC(=O)Cc4cc(OC)c(OC)cc4Br)[C@@H](O)[C@H](O)[C@H]3O)[C@H](O)[C@@H](O)[C@@H]2O)cc1OC` [UM1082] the “Maximum cytokine response h-IL-6” value [2] was 0.5 OD, the “Minimal Effective Concentration h-IL-6” value [2] was 100 µM and the “Maximum cytokine response Murine” value (RAW264.7 cells) was 1.7. The “Minimal Effective Concentration Murine” value (RAW264.7 cells) was 33 µM.

In the case of `CC(C)(C)c1cc(C(=O)OC[C@H]2O[C@H](O[C@H]3O[C@H](COC(=O)c4cc(C(C)(C)C)cc(C(C)(C)C)c4)[C@@H](O)[C@H](O)[C@H]3O)[C@H](O)[C@@H](O)[C@@H]2O)cc(C(C)(C)C)c1` [UM1047], the “Maximum cytokine response h-IL-6” value [2] is reported as 1 OD, the “Minimal Effective Concentration h-IL-6” value [2] is reported as 11 µM and the “Maximum cytokine response Murine” value (RAW264.7 cells) is reported as 0.9. The “Minimal Effective Concentration Murine” value (RAW264.7 cells) was 1.2 µM.
